Data: paper PMC9029323, “In Silico Identification of Novel Inhibitors Targeting the Homodimeric Interface of Superoxide Dismutase from the Dental Pathogen Streptococcus mutans” (Antioxidants, 2022)

Legend:
[1] = biological target: T1, SmSOD (Streptococcus mutans serotype c, UniProt P09738); assay: SOD activity assay (inhibition of cytochrome c reduction, xanthine/xanthine oxidase method) with SmSOD; format: biochemical; details: for remaining activity at 50 µM: 50 µM compound; for remaining activity at 50 µM / remaining activity at 100 µM / IC50: ALS-31 derivatives, Table 2; for remaining activity at 50 µM / remaining activity at 100 µM: read-out: Residual SOD Activity (%) in the Presence of [Compound]; for remaining activity at 100 µM: 100 µM compound; for IC50: SmSOD activity, read-out: IC50; for effect on SmSOD activity (in words): screening concentrations or inhibition profile up to 300 µM
T1 construct: His-tail; made in house; host or cells: Escherichia coli BL21(DE3), vector vSmSOD (pET-22b(+)-derived)
T1 sequence (P09738 2-203): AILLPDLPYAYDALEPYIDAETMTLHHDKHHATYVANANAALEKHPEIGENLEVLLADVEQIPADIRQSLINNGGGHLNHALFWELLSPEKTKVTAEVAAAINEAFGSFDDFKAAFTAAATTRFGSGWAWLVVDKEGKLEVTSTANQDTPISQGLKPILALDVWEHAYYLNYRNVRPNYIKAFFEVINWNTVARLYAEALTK
Excerpt: Purified recombinant forms of SmSOD and StSOD were obtained through a heterologous expression system constituted by the Escherichia coli BL21(DE3) strain transformed with appropriate expression vectors, vSmSOD [11] or vStSOD [12]. These pET-22b(+)- or pET-28b(+)-derived plasmids led to the production of recombinant forms of SmSOD or StSOD, respectively fused to a His-tail, useful for their one-step purification by affinity chromatography, as previously described [11, 12]. The improvement of Mn uptake by SmSOD was realised as previously described [11, 12, 13]. The resulting metal (Fe and Mn) content in the cambialistic enzyme was determined by graphite furnace atomic absorption spectrometry with a Shimadzu ACS-6100 auto sampler [46]. Fe-SOD from Escherichia coli (cat. SRP6107) and the Cu/Zn-SOD from bovine erythrocytes (cat. 574594) were purchased from Sigma–Aldrich. A recombinant form of the eukaryal Mn–SOD from rat mitochondria was prepared as previously described [19]. Protein concentration was determined by the Bradford method, using bovine serum albumin as standard [47]. […] One unit of SOD activity was defined as the amount of enzyme that caused 50% inhibition of cytochrome c reduction.

[2] = tested on: Streptococcus mutans ATCC-700610; assay: Broth micro-dilution antibacterial assay (planktonic growth); format: cell-based; details: 24 h
Procedure: (§1) The bacterial strain used for antimicrobial assays was Streptococcus mutans ATCC-700610. The strain was stored in 15% (v/v) glycerol stocks at −80 °C. Before each experiment, cells were subcultured from the stocks into Trypticase Soy Agar (TSA, cat. PA-254051.06) with 5% Sheep Blood (Becton Dickinson, Sparks, NV, USA) plates at 37 °C in 5% CO2 atmosphere for 48 h.
The antibacterial activity of compounds ALS-31 or ALS-31-9 was assayed in S. mutans cultures by a standard broth micro-dilution method in 96-well polystyrene plates using Brain-Heart Infusion broth (BHI, cat. 255003, Becton Dickinson, Sparks, NV, USA). One hundred microliters of bacterial suspension adjusted to approximately 1.5 × 10^6 CFU/mL were incubated with 100 µL of serial dilutions of the compounds dissolved in final 1.0% (v/v) DMSO as a vehicle. The plates were incubated at 37 °C in 5% CO2 atmosphere for 24 h under shaking (300 rpm). The medium turbidity was measured by a spectrophotometer at 595 nm (Bio-Rad Laboratories Inc., Hercules, CA, USA). Compound-free wells in 1.0% (v/v) DMSO were used as controls (100% planktonic growth), and antibacterial activity was expressed as a percentage of residual growth. Chlorhexidine acetate (CHX, cat. 51094, Sigma-Aldrich, St. Louis, MO, USA) solution (1 mg/mL) was prepared and included as control for the assay of S. mutans’ susceptibility (MIC referred to [51]). Each compound was tested in triplicate; each experiment was performed twice.

[3] = tested on: Streptococcus mutans ATCC-700610; assay: Crystal violet staining biofilm biomass assay; format: cell-based; details: Streptococcus mutans, ATCC700610, 24 h, read-out: inhibition of biofilm biomass formation
Procedure: as §1
The crystal violet (CV) staining method was used to measure biofilm biomass formed in flat-bottomed 96-well microplates in the presence of ALS-31 or ALS-31-9, as described by Stepanović et al., with some modifications. A bacterial suspension of approximately 1.5 × 10^6 CFU/mL in BHI supplemented with 1% (w/v) glucose was prepared, and 100-µL aliquots of this suspension were incubated with 100 µL of serial dilutions of each compound. The microplate was incubated at 37 °C for 24 h, after which the non-adherent cells were gently aspirated and the wells gently rinsed with PBS (Sigma–Aldrich). The adhered biofilm was dried at 60 °C for 30 min and subsequently stained with 0.1% (w/v) crystal violet solution for 30 min. After washing with PBS and solubilization with absolute ethanol to release the dye from the biofilm, the plate was read at 570 nm in a spectrophotometer. The absorbance recorded was related to the amount of biofilm produced. The reduction in the mass of the biofilm was expressed as a percentage by using the formula [(Ac-At)/Ac] × 100, where Ac is the OD570 for the control wells and At is the OD570 in the presence of the tested compound.

SMILES: CSCCC(NC(=O)COc1ccc2c3c(c(=O)oc2c1)CCC3)C(=O)O (stereo not drawn) [ALS-31-1]
- remaining activity at 50 µM [1]: 104%
- remaining activity at 100 µM [1]: 97.2%

SMILES: O=C(O)CCC(NC(=O)COc1ccc2c3c(c(=O)oc2c1)CCC3)C(=O)O (stereo not drawn) [ALS-31-2]
- remaining activity at 50 µM [1]: 89.8%
- remaining activity at 100 µM [1]: 113%

SMILES: CSCCC(NC(=O)CCNC(=O)COc1ccc2c3c(c(=O)oc2c1)CCC3)C(=O)O (stereo not drawn) [ALS-31-3]
- remaining activity at 50 µM [1]: 78.8%
- remaining activity at 100 µM [1]: 104%

SMILES: CSCCC(NC(=O)COc1cc(C)cc2oc(=O)c3c(c12)CCC3)C(=O)NCCC(=O)O (stereo not drawn) [ALS-31-4]
- remaining activity at 50 µM [1]: 92.6%
- remaining activity at 100 µM [1]: 96.8%

SMILES: CC(NC(=O)COc1ccc2c3c(c(=O)oc2c1)CCCC3)C(=O)NCC(=O)NCC(=O)O (stereo not drawn) [ALS-31-5]
- remaining activity at 50 µM [1]: 93.4%
- remaining activity at 100 µM [1]: 99.6%

SMILES: O=C(O)CCCNC(=O)COc1ccc2c3c(c(=O)oc2c1)CCCC3 [ALS-31-6]
- remaining activity at 50 µM [1]: 75.1%
- remaining activity at 100 µM [1]: 78%
- IC50 [1]: 127 ± 12 µM
- effect on SmSOD activity (in words) [1]: dose-dependent reduction

SMILES: O=C(O)CCNC(=O)COc1ccc2c3c(c(=O)oc2c1)CCCC3 [ALS-31-7]
- remaining activity at 50 µM [1]: 95.4%
- remaining activity at 100 µM [1]: 125%

SMILES: CSCCC(NC(=O)CCNC(=O)COc1cc2oc(=O)c3c(c2cc1C)CCCC3)C(=O)O (stereo not drawn) [ALS-31-8]
- remaining activity at 50 µM [1]: 69.2%
- remaining activity at 100 µM [1]: 76.9%
- IC50 [1]: 292 ± 30 µM
- effect on SmSOD activity (in words) [1]: dose-dependent reduction

SMILES: CCCC(NC(=O)COc1ccc2c3c(c(=O)oc2c1)CCCC3)C(=O)NCCCC(=O)O (stereo not drawn) [ALS-31-9]
- remaining activity at 50 µM [1]: 65.3%
- remaining activity at 100 µM [1]: 50.3%
- IC50 [1]: 64 ± 15 µM
- improved inhibition power on SmSOD compared to lead ALS-31 ([1]; ratio of IC50 values): 2.5 fold
- effect on SmSOD activity (in words) [1]: dose-dependent reduction
- percentage of planktonic growth of S. mutans ([2]; 54 µM): 79.0 ± 4.6%
- percentage of planktonic growth of S. mutans ([2]; 108 µM): 39.5 ± 2.1%
- planktonic growth of S. mutans compared with 108 µM ([2]; 216 µM): no further reduction
- concentration up to which no antimicrobial activity is displayed in S. mutans suspensions [2]: ≤ 25 µM
- inhibition at 13.5 µM ([3]; 13.5 µM): 29.4%
- inhibition at 27.3 µM ([3]; 27.3 µM): 62.1%

SMILES: CSCCC(NC(=O)COc1ccc2c3c(c(=O)oc2c1)CCCC3)C(=O)O (stereo not drawn) [ALS-31-10]
- remaining activity at 50 µM [1]: 75%
- remaining activity at 100 µM [1]: 68.9%
- IC50 [1]: 139 ± 8 µM
- effect on SmSOD activity (in words) [1]: dose-dependent reduction

SMILES: CCCC(NC(=O)COc1ccc2c3c(c(=O)oc2c1)CCCC3)C(=O)O (stereo not drawn) [ALS-31-11]
- remaining activity at 50 µM [1]: 83.7%
- remaining activity at 100 µM [1]: 125%

SMILES: O=C(O)CNC(=O)CNC(=O)COc1ccc2c3c(c(=O)oc2c1)CCCC3 [ALS-31-12]
- remaining activity at 50 µM [1]: 75.6%
- remaining activity at 100 µM [1]: 125%
